This note sets out measurements from patent publication US8697158B2, “Mineral amino acid polysaccharide complex” (Melaleuca, Inc., priority 2008, dated 2014).

The nature of data set [1]: Hydroxyl radical formation (EPR, DMPO spin trapping). The conditions noted are these: metal 800 μM, DMPO 18.7 mM, H2O2 61 mM, HEPES pH 7.2; relative to AAC. As to the method:
The rate of hydroxyl radical formation catalyzed by a complex comprising an iron- or copper-amino acid inulin complex was compared to the iron- or copper-amino acid compound alone.
Mineral (Cu or Fe) was dissolved in 10 mM HEPES buffer (pH 7.2) containing DMPO. Iron and copper were used in the form of amino acid compounds (i.e., glycinates; AAC) and as amino acid inulin complexes (1:9 w/w; AAC/OF). Hydrogen peroxide was added 90 seconds prior to measurement.
The spin trapping reagent—5,5-dimethylpyrroline-N-oxide (DMPO) was used for monitoring hydroxyl radical.
The relative signal amplitudes for DMPO/hydroxyl radical adduct, which can be correlated to the concentration of hydroxyl radical present in the solution, was measured (Table 3).

A short description of data set [2]: Ascorbyl radical kinetics (EPR), iron-catalyzed ascorbic oxidation. Conditions: for relative amplitude of the ascorbyl radical signal: iron solution 0.9 mM, ascorbic acid 4.04 mM, HEPES pH 7.2. As to the method: Samples of iron(II) sulfate, iron(II) bis-glycinate (FeAAC), and an iron(II) bis-glycinate inulin complex (FeAAC/OF; ratio 1:10 w/w) were analyzed using EPR spectroscopy to determine their ability to generate the ascorbate radical, i.e. to catalyze ascorbic oxidation. The samples were dissolved in 10 mM HEPES buffer (pH 7.2) to a final concentration 0.9 mM of iron.
The iron solutions were mixed with the ascorbic acid solution, and the mixture was transferred into capillary tubes for measurement. Multiple readings were performed over 30 minutes.
EPR measurements were performed in 50 μL capillary tubes at room temperature using a Bruker ER-200 X-band EPR spectrometer.
The relative amplitudes of the ascorbyl radical signal, which can be correlated to the concentration of ascorbyl radical present in the solution, were measured (Table 2).

Data set [3] in a line: Mineral solubility at conditions close to physiological. The conditions noted are these: one hour at pH 1-1.2, then one hour at pH 7-7.2; supernatant after centrifugation. As to the method:
Two forms of zinc, copper, and iron were tested for solubility at conditions close to physiological. […] Samples, in an amount equivalent to 20 tablets, were suspended in 20 mL of water. The pH was adjusted to 1-1.2 and maintained for one hour, simulating a gastric environment. After the first hour, the pH was adjusted to 7-7.2 and maintained for another hour, simulating an intestinal environment. The product was then centrifuged and the supernatant taken for analysis.

Data set [4] in a line: Copper-mediated oxidation of Trolox (Fenton system, EPR).
Description: The one-electron oxidation of Trolox results in the formation of a phenoxyl radical that is readily detected by EPR. All EPR measurements were done in using a Bruker ER-200 X-band EPR spectrometer. Samples (50 μL) in capillary tubes (0.5 mm i.d.) were examined at room temperature.

As to `NCC(=O)[O-].NCC(=O)[O-].[Cu+2]` [Cu AAC], in data set [1], the “relative signal amplitude for DMPO/hydroxyl radical adduct” value is on record as 100%.
Take `NCC(=O)[O-].NCC(=O)[O-].[Fe+2]` [FeAAC, iron(II) bis-glycinate]: in data set [2] (compared with the iron sulfate), the “stabilization (lifetime) of the ascorbyl radical” value is on record as “longer period of time”. In addition, the “relative amplitude of the ascorbyl radical signal” value (from here on “relative amplitude”) in data set [2] (time 1.5 min) was 100%; in data set [2] (time 3.5 min), 74%; in data set [2] (time 5.5 min), 65%; in data set [2] (time 10.0 min), 47%; in data set [2] (time 14.0 min), 33%; in data set [2] (time 20.0 min) it was 19%. Moreover, in data set [2] (time 28.0 min), the “relative amplitude” value stood at 19%. Moreover, the “relative signal amplitude for DMPO/hydroxyl radical adduct” value in data set [1] was determined as 100%.
Turning to `O=S(=O)([O-])[O-].[Fe+2]` [FeSO4, iron(II) sulfate], the “relative amplitude” value in data set [2] (time 1.5 min) came to 100%; in data set [2] (time 3.5 min), 76%; in data set [2] (time 5.5 min), 64%; in data set [2] (time 10.0 min), 24%; in data set [2] (time 14.0 min), 14%; in data set [2] (time 20.0 min), 10%. Moreover, the “relative amplitude” value in data set [2] (time 28.0 min) is 5%.
As for `[O-2].[Zn+2]` [Zinc Inorganic Form, zinc oxide], the “percent of solubilized mineral” value in data set [3] was found to be 1.2%.
Take gluconate: the “EPR signal of the Trolox free radical, reduction compared to CuSO4” value in data set [4] is “about 15%”.
